Assay results published in patent EP4745130A1, “CRYSTAL FORMS OF TUBULIN-SRC DUAL-TARGETING INHIBITOR, PREPARATION METHOD THEREFOR AND USE THEREOF” (Hubei Bio-Pharmaceutical Industrial Technological Institute …, priority 2023, dated 2025).
Counter-ions that a name gives are not always drawn.

Legend:
[1] = Hygroscopicity test by dynamic vapor sorption (DVS); assay type: physicochemical; conditions: DVS, 25°C, 0%RH to 95%RH
Method: The dynamic vapor sorption (DVS) curve was collected on DVS IntrInsic from SMS (surface measurement systems). The relative humidity at 25°C was corrected using the deliquescence points of LiCl, Mg(NO3)2, and KCl. Table 18 DVS test parameters
The percentage change in sample mass was collected under constant temperature at 25°C as humidity varied from 0%RH to 95%RH.

[2] = Solid-state stability (XRPD and HPLC after open storage); assay type: physicochemical; conditions: for Crystal form: XRPD
Method: The purity test, dynamic solubility test, and stability test in the assay were measured using an Agilent 1260 high-performance liquid chromatograph, and the salt formation molar ratio of ions was tested by ion chromatography, and the analytical conditions are shown in Table 19 and Table 20. Table 19 High-performance liquid chromatography test conditions

[3] = Dynamic solubility experiment at 37°C (water, SGF, FaSSIF, FeSSIF); conditions: for S: solubility: solid feed 10 mg/mL; for pH: pH value of the filtrate
Method: Rotating mixing was carried out at 37°C at a solid feed concentration of 10 mg/mL (calculated as the compound of Formula I). […] After sampling at each time point, the samples were centrifuged (10000 rpm) and filtered (0.45 µm PTFE filter head), and the HPLC concentration and pH value of the filtrate were measured.
100 mg of NaCl and 50 mg of Triton X-100 were weighed into a 50 mL volumetric flask, and purified water was added to complete dissolution. 816 µL of 1 M hydrochloric acid was added thereto, and the pH was adjusted to 1.8 with 1 M hydrochloric acid or 1 M NaOH solution. Purified water was added to make up to volume.
340 mg of anhydrous NaH2PO4 and 620 mg of NaCl were weighed into a 100 mL volumetric flask. Purified water was added to complete dissolution, followed by addition of 55.44 µL of 50% NaOH solution, and the pH was adjusted to 6.5 using 1M HCl or 1M NaOH solution. Purified water was added to make up to volume. 110 mg of SIF powder was then weighed into a 50 mL volumetric flask, added with the above solution to complete dissolution and make up to volume.
0.82 mL of glacial acetic acid and 1.18 g of NaCl were added to a 100 mL volumetric flask. Purified water was added to complete dissolution, followed by addition of 528 µL of 50% NaOH solution, and the pH was adjusted to 5.0 using 1M HCl or 1M NaOH solution. Purified water was added to make up to volume. 560 mg of SIF powder was then weighed into a 50 mL volumetric flask, added with the above solution to complete dissolution and make up to volume.

[4] = Heating / variable temperature XRPD (VT-XRPD), crystal form conversion; assay type: physicochemical
Method: The XRPD pattern was collected on an X-ray powder diffraction analyzer produced by PANalytacal, and the scanning parameters are shown in Table 16. Table 16 XRPD test parameters
The free form crystal form B sample was obtained by dissolving the compound of Formula I in MeOH, removing the solvent by rotary evaporation under reduced pressure, and then transferring the resulting gel-like sample for vacuum drying at 50°C. The XRPD and TGA/DSC characterization results are shown in FIGS. 4-6, and the XRPD diffraction peak data of the free form crystal form B are shown in Table 23. […] The TGA weight loss of the free form crystal form B is low, and the free form crystal form B is an anhydrous crystal form.
Combined with the TGA/DSC and ^1H NMR results of the crystal form A of the phosphate salt, the crystal form A of the phosphate salt was a hydrate, which dehydrated under heating conditions and converted to anhydrous crystal form B of the phosphate salt.

[5] = 25°C/60%RH/open, 1 week, listed as Crystal form A ofp-toluenesulfonate salt
[6] = 40°C/75%RH/open, 1 week, listed as Crystal form A ofp-toluenesulfonate salt

With `Cc1cc(OCCN2C[C@H]3COC[C@H]3C2)ccc1-c1ccc(CC(=O)NCc2ccccc2)nc1` the hygroscopicity ([1]; listed as crystal form A of the p-toluenesulfonate salt) was “slightly hygroscopic”, the Crystal form [2, 5] was “Crystal form A of p-toluenesulfonate salt” and the “Purity (area%)” value [2, 5] was 97.38 area%. The “Relative to initial (%)” value [2, 5] was 99.7%, the Crystal form [2, 6] was “Crystal form A of p-toluenesulfonate salt” and the “Purity (area%)” value [2, 6] was 97.38 area%. For the same compound, the “Relative to initial (%)” value [2, 6] was 99.7%, the “Purity (area%)” value ([2]; Initial, listed as Crystal form A ofp-toluenesulfonate salt) was 97.67 area% and the “S: solubility” value ([3]; FaSSIF, 1 hour, listed as Crystal form A ofp-toluenesulfonate salt, 60 min) was 2780 µg/mL. For the same compound, the “S: solubility” value ([3]; FaSSIF, 4 hours, listed as Crystal form A ofp-toluenesulfonate salt, 240 min) was 2780 µg/mL, the “S: solubility” value ([3]; FaSSIF, 24 hours, listed as Crystal form A ofp-toluenesulfonate salt, 1440 min) was 2680 µg/mL and the “S: solubility” value ([3]; FeSSIF, 1 hour, listed as Crystal form A ofp-toluenesulfonate salt, 60 min) was 4120 µg/mL. For the same compound, the “S: solubility” value ([3]; FeSSIF, 4 hours, listed as Crystal form A ofp-toluenesulfonate salt, 240 min) was 2510 µg/mL, the “S: solubility” value ([3]; FeSSIF, 24 hours, listed as Crystal form A ofp-toluenesulfonate salt, 1440 min) was 2300 µg/mL and the “S: solubility” value ([3]; H2O, 1 hour, listed as Crystal form A ofp-toluenesulfonate salt, 60 min) was 5970 µg/mL. For the same compound, the “S: solubility” value ([3]; H2O, 4 hours, listed as Crystal form A ofp-toluenesulfonate salt, 240 min) was 6130 µg/mL, the “S: solubility” value ([3]; H2O, 24 hours, listed as Crystal form A ofp-toluenesulfonate salt, 1440 min) was 5750 µg/mL and the “S: solubility” value ([3]; SGF, 1 hour, listed as Crystal form A ofp-toluenesulfonate salt, 60 min) was 9410 µg/mL. The “S: solubility” value ([3]; SGF, 4 hours, listed as Crystal form A ofp-toluenesulfonate salt, 240 min) was 9460 µg/mL, the “S: solubility” value ([3]; SGF, 24 hours, listed as Crystal form A ofp-toluenesulfonate salt, 1440 min) was 8970 µg/mL and the pH ([3]; FaSSIF, 1 hour, listed as Crystal form A ofp-toluenesulfonate salt) was 6.0. It also gave a pH ([3]; FaSSIF, 4 hours, listed as Crystal form A ofp-toluenesulfonate salt) of 6.1, a pH ([3]; FaSSIF, 24 hours, listed as Crystal form A ofp-toluenesulfonate salt) of 6.1 and a pH ([3]; FeSSIF, 1 hour, listed as Crystal form A ofp-toluenesulfonate salt) of 4.9. It also gave a pH ([3]; FeSSIF, 4 hours, listed as Crystal form A ofp-toluenesulfonate salt) of 4.9, a pH ([3]; FeSSIF, 24 hours, listed as Crystal form A ofp-toluenesulfonate salt) of 4.9 and a pH ([3]; H2O, 1 hour, listed as Crystal form A ofp-toluenesulfonate salt) of 5.3. It also gave a pH ([3]; H2O, 4 hours, listed as Crystal form A ofp-toluenesulfonate salt) of 5.4, a pH ([3]; H2O, 24 hours, listed as Crystal form A ofp-toluenesulfonate salt) of 5.2 and a pH ([3]; SGF, 1 hour, listed as Crystal form A ofp-toluenesulfonate salt) of 3.3. The pH ([3]; SGF, 4 hours, listed as Crystal form A ofp-toluenesulfonate salt) was 3.3 and the pH ([3]; SGF, 24 hours, listed as Crystal form A ofp-toluenesulfonate salt) was 3.3.

In the case of `Cc1cc(OCCN2C[C@H]3COC[C@H]3C2)ccc1-c1ccc(CC(=O)NCc2ccccc2)nc1` [Crystal form A of benzenesulfonate salt], the hygroscopicity ([1]; listed as crystal form A of the benzenesulfonate salt) is reported as “slightly hygroscopic”, the “Purity (area%)” value ([2]; 25°C/60%RH/open, 1 week) is reported as 97.61 area% and the “Relative to initial (%)” value ([2]; 25°C/60%RH/open, 1 week) is reported as 99.8%. The Crystal form ([2]; 25°C/60%RH/open, 1 week) was “Crystal form A of benzenesulfonate salt”, the “Purity (area%)” value ([2]; 40°C/75%RH/open, 1 week) was 97.61 area% and the “Relative to initial (%)” value ([2]; 40°C/75%RH/open, 1 week) was 99.8%. The Crystal form ([2]; 40°C/75%RH/open, 1 week) was “Crystal form A of benzenesulfonate salt”, the “Purity (area%)” value ([2]; Initial) was 97.78 area% and the “S: solubility” value ([3]; FaSSIF, 1 hour, 60 min) was 3980 µg/mL. The “S: solubility” value ([3]; FaSSIF, 4 hours, 240 min) was 3640 µg/mL, the “S: solubility” value ([3]; FaSSIF, 24 hours, 1440 min) was 3550 µg/mL and the “S: solubility” value ([3]; FeSSIF, 1 hour, 60 min) was 3150 µg/mL. The “S: solubility” value ([3]; FeSSIF, 4 hours, 240 min) was 2890 µg/mL, the “S: solubility” value ([3]; FeSSIF, 24 hours, 1440 min) was 2910 µg/mL and the “S: solubility” value ([3]; H2O, 1 hour, 60 min) was 8290 µg/mL. The “S: solubility” value ([3]; H2O, 4 hours, 240 min) was 8390 µg/mL, the “S: solubility” value ([3]; H2O, 24 hours, 1440 min) was 8120 µg/mL and the “S: solubility” value ([3]; SGF, 1 hour, 60 min) was 9940 µg/mL. The “S: solubility” value ([3]; SGF, 4 hours, 240 min) was 9950 µg/mL, the “S: solubility” value ([3]; SGF, 24 hours, 1440 min) was 9700 µg/mL and the pH ([3]; FaSSIF, 1 hour) was 6.1. The pH ([3]; FaSSIF, 4 hours) was 6.1, the pH ([3]; FaSSIF, 24 hours) was 6.1 and the pH ([3]; FeSSIF, 1 hour) was 4.9. For the same compound, the pH ([3]; FeSSIF, 4 hours) was 4.9, the pH ([3]; FeSSIF, 24 hours) was 4.9 and the pH ([3]; H2O, 1 hour) was 5.6. It also gave a pH ([3]; H2O, 4 hours) of 5.6, a pH ([3]; H2O, 24 hours) of 5.6 and a pH ([3]; SGF, 1 hour) of 3.4. For the same compound, the pH ([3]; SGF, 4 hours) was 3.5 and the pH ([3]; SGF, 24 hours) was 3.5.

With `Cc1cc(OCCN2C[C@H]3COC[C@H]3C2)ccc1-c1ccc(CC(=O)NCc2ccccc2)nc1` [Crystal form A of phosphate salt] the hygroscopicity ([1]; listed as crystal form A of the phosphate salt) was “rapidly dehydrates below 10% RH”, the “Purity (area%)” value ([2]; 25°C/60%RH/open, 1 week) was 97.84 area% and the “Relative to initial (%)” value ([2]; 25°C/60%RH/open, 1 week) was 100.2%. The Crystal form ([2]; 25°C/60%RH/open, 1 week) was “Crystal form A of phosphate salt”, the “Purity (area%)” value ([2]; 40°C/75%RH/open, 1 week) was 97.55 area% and the “Relative to initial (%)” value ([2]; 40°C/75%RH/open, 1 week) was 99.9%. The Crystal form ([2]; 40°C/75%RH/open, 1 week) was “Crystal form A of phosphate salt”, the “Purity (area%)” value ([2]; Initial) was 97.62 area% and the “S: solubility” value ([3]; FaSSIF, 1 hour, 60 min) was 6630 µg/mL. For the same compound, the “S: solubility” value ([3]; FaSSIF, 4 hours, 240 min) was 6320 µg/mL, the “S: solubility” value ([3]; FaSSIF, 24 hours, 1440 min) was 6140 µg/mL and the “S: solubility” value ([3]; FeSSIF, 1 hour, 60 min) was 5130 µg/mL. The “S: solubility” value ([3]; FeSSIF, 4 hours, 240 min) was 4120 µg/mL, the “S: solubility” value ([3]; FeSSIF, 24 hours, 1440 min) was 3730 µg/mL and the “S: solubility” value ([3]; H2O, 1 hour, 60 min) was 9830 µg/mL. For the same compound, the “S: solubility” value ([3]; H2O, 4 hours, 240 min) was 9650 µg/mL, the “S: solubility” value ([3]; H2O, 24 hours, 1440 min) was 9120 µg/mL and the “S: solubility” value ([3]; SGF, 1 hour, 60 min) was 9140 µg/mL. The “S: solubility” value ([3]; SGF, 4 hours, 240 min) was 9670 µg/mL, the “S: solubility” value ([3]; SGF, 24 hours, 1440 min) was 9070 µg/mL and the pH ([3]; FaSSIF, 1 hour) was 5.9. The pH ([3]; FaSSIF, 4 hours) was 5.9, the pH ([3]; FaSSIF, 24 hours) was 5.9 and the pH ([3]; FeSSIF, 1 hour) was 4.9. For the same compound, the pH ([3]; FeSSIF, 4 hours) was 4.9, the pH ([3]; FeSSIF, 24 hours) was 4.9 and the pH ([3]; H2O, 1 hour) was 5.3. For the same compound, the pH ([3]; H2O, 4 hours) was 5.4, the pH ([3]; H2O, 24 hours) was 5.3 and the pH ([3]; SGF, 1 hour) was 3.4. For the same compound, the pH ([3]; SGF, 4 hours) was 3.4, the pH ([3]; SGF, 24 hours) was 3.4 and the “crystal form after heating” value ([4]; heating to 150°C under nitrogen, cooling to 30°C, exposing to air) was “conversion to free form crystal form B”. For the same compound, the “crystal form after purging” value ([4]; purging under N2 for 20 min) was “remained unchanged”.

For `Cc1cc(OCCN2C[C@H]3COC[C@H]3C2)ccc1-c1ccc(CC(=O)NCc2ccccc2)nc1` [Crystal form B of oxalate salt], the hygroscopicity ([1]; listed as crystal form B of the oxalate salt) was “slightly hygroscopic”, the “Purity (area%)” value ([2]; 25°C/60%RH/open, 1 week) was 97.49 area% and the “Relative to initial (%)” value ([2]; 25°C/60%RH/open, 1 week) was 100.0%. For the same compound, the Crystal form ([2]; 25°C/60%RH/open, 1 week) was “Crystal form B of oxalate salt”, the “Purity (area%)” value ([2]; 40°C/75%RH/open, 1 week) was 97.52 area% and the “Relative to initial (%)” value ([2]; 40°C/75%RH/open, 1 week) was 100.1%. The Crystal form ([2]; 40°C/75%RH/open, 1 week) was “Crystal form B of oxalate salt”, the “Purity (area%)” value ([2]; Initial) was 97.47 area% and the “S: solubility” value ([3]; FaSSIF, 1 hour, 60 min) was 9270 µg/mL. For the same compound, the “S: solubility” value ([3]; FaSSIF, 4 hours, 240 min) was 8890 µg/mL, the “S: solubility” value ([3]; FaSSIF, 24 hours, 1440 min) was 8470 µg/mL and the “S: solubility” value ([3]; FeSSIF, 1 hour, 60 min) was 3800 µg/mL. For the same compound, the “S: solubility” value ([3]; FeSSIF, 4 hours, 240 min) was 3660 µg/mL, the “S: solubility” value ([3]; FeSSIF, 24 hours, 1440 min) was 3480 µg/mL and the “S: solubility” value ([3]; H2O, 1 hour, 60 min) was 9650 µg/mL. The “S: solubility” value ([3]; H2O, 4 hours, 240 min) was 9650 µg/mL, the “S: solubility” value ([3]; H2O, 24 hours, 1440 min) was 9360 µg/mL and the “S: solubility” value ([3]; SGF, 1 hour, 60 min) was 9990 µg/mL. For the same compound, the “S: solubility” value ([3]; SGF, 4 hours, 240 min) was 9790 µg/mL, the “S: solubility” value ([3]; SGF, 24 hours, 1440 min) was 9610 µg/mL and the pH ([3]; FaSSIF, 1 hour) was 4.2. The pH ([3]; FaSSIF, 4 hours) was 4.2, the pH ([3]; FaSSIF, 24 hours) was 4.2 and the pH ([3]; FeSSIF, 1 hour) was 4.7. For the same compound, the pH ([3]; H2O, 1 hour) was 3.8, the pH ([3]; H2O, 4 hours) was 3.8 and the pH ([3]; H2O, 24 hours) was 3.9. It also gave a pH ([3]; SGF, 1 hour) of 3.1, a pH ([3]; SGF, 4 hours) of 3.1 and a pH ([3]; SGF, 24 hours) of 3.1.
